Reference: a melting point compilation (Tetko et al.; mined from patent text by program, amines drawn as free bases though some values may be those of a salt)

SMILES	melting point
CC(=O)OC1CSC(Oc2ccc(-c3ccc(F)nc3)nc2Cl)C(OC(C)=O)C1OC(C)=O (stereo not given)	226 °C
O=C(O)c1ccc(C2(F)CC2c2ccc(Cl)cc2)cc1 (stereo not given)	204 °C
COc1cc2ncnc(N3CCCc4ccccc43)c2cc1SC	193 to 196 °C
CCC(Oc1c(C(C)C)cccc1C(C)C)C(=O)OC1CC(O)C=C2C=CC(C)C(CCC3CC(O)CC(=O)O3)C21 (mixture of isomers)	119 to 121 °C
Nc1nc(Cl)nc(N(CCC(=O)O)Cc2ccc(Cl)c(Cl)c2)n1	105 to 110 °C
c1cc2c3c(cccc3c1)C(NOCCCn1ccnc1)=N2	102 to 104 °C
CCCc1nc2c(N)ncc(Br)c2n1CCOCCNC(=O)NC1CCCCC1	185 to 186 °C
Cc1cc(Cl)c2cc(O)ccc2n1	233 °C
O=C(O)c1c(F)cccc1NC1CCN(Cc2ccccc2)CC1	233 to 236 °C
CC(=O)Nc1cc(N(C)C)c([N+](=O)[O-])cc1C(=O)O	230 to 255 °C
CCOC(=O)c1[nH]c2cc(Cl)cc(Cl)c2c1NCC(=O)c1ccccc1	143 to 144 °C
CCOc1ccc2[nH]ccc2c1	144 to 146 °C
COc1cccc2c(=O)n(C(C)(C)C(=O)O)c(=O)[nH]c12	255 to 258 °C
COc1ccc(C(=NO)c2ccccc2F)c(Cl)c1Cl	195 to 197 °C
COc1ccc(-c2ccnc3c(C(=O)c4cccs4)cnn23)cc1NC(=O)CC(C)C	192 to 194 °C
COC(=O)CC(C#N)c1cccc2ccc(OC)cc12 (stereo not given)	113 to 114 °C
Cc1cc(-n2ccnc2)c2cccc(OCc3c(Cl)ccc(S(=O)(=O)N4CCC[C@H]4C(=O)N(C)CCCN(C)CCCCO)c3Cl)c2n1	82 °C
CCc1cc(-c2[nH]c3ccccc3c2C)cc(CC)c1O	112 °C
O=C(O)CCc1ccc(OCc2ccccc2)cc1	123 to 124 °C
O=C1Nc2ccccc2C12COc1cc3c(cc12)CCO3 (stereo not given)	105 to 107 °C
Cc1ccc2c3c(ccc2n1)OC[C@H](CN1CCN(c2ccc4ccccc4n2)C[C@@H]1C)O3	78 to 82 °C

SMILES	melting point
COC(=O)c1ccc(CCCCc2c(N)nc(N)nc2O)cc1	203 to 205 °C
Nc1c(CC(=O)O)cccc1Nc1ccc(Cl)cc1	190 to 192 °C
O=C(O)CCCCCCCCc1nc(-c2ccccc2)c(-c2ccccc2)o1	83 to 85 °C
COCOc1ccc(OC)c(F)c1C(=O)c1ccc(C(=O)N[C@@H]2CCCN(C(=O)OC(C)(C)C)C[C@H]2NC(=O)c2ccncc2)cc1	106 °C
CC(=O)NNc1c(C)cnc2c(NC(=O)c3c(Cl)cccc3Cl)cccc12	249 to 254 °C
CCCCCc1cnc(N2CCC(c3ccc(COc4ccc(C#N)c(F)c4)nc3)CC2)nc1	92 to 94 °C
COc1cc(C(=O)CCCc2ccccc2)cc([N+](=O)[O-])c1O	120 to 121 °C
Cc1nc2c(OCc3c(Cl)ccc(N(C)C(=O)CN4C(=O)c5ccccc5C4=O)c3Cl)cccc2n1C	226 to 227 °C
CC(=O)c1c(NC(C)(C)C)nc(NC(C)(C)C)c(Br)c1C	99 to 100 °C
N#Cc1c(Cl)c(C(F)(F)F)n(CCl)c1-c1ccc(Cl)cc1	107 to 108 °C
Cc1cccc(NC(=O)NCC(=O)N2[C@@H](c3ccccc3F)SC[C@H]2C(=O)OC(C)(C)C)c1	107 °C
COc1ccc(-c2cc(C(=O)O)c(=O)n(CC3CC3)n2)cc1	154 to 155 °C
CCOC(=O)c1cccc(-c2nc(-c3cc(Cl)sc3Cl)cs2)c1	125 to 126 °C
CCOC(=O)c1cn[nH]c1C(=O)CC(C)C	105 to 107 °C
CCCCc1nc2c(N)nc3c(c2n1CC(C)C)NCCC3	143 to 147 °C
COCO[C@@H]1[C@H]2OC(C)(C)O[C@H]2[C@H](O[C@H]2C[C@H]3OC(C)(C)OC[C@]34C3C(CC[C@]4(O)C2)[C@@]2(O)CC[C@H](C#N)[C@@]2(C)C[C@H]3OCOC)O[C@H]1C (stereo not given in full)	97 to 99 °C
CC(C)c1cc(S(N)(=O)=O)c(C(C)C)cc1Br	145 to 152 °C
COc1ccc(Nc2cccc3c2C(=O)N([C@@]2(C)CCC(=O)NC2=O)C3=O)c(OC)c1	255 to 257 °C
CO[C@@H]1CC[C@@H](NC(C)=O)c2ccccc21 (relative stereo)	97 to 100 °C
OCCCc1nc(COc2ccc(CCCn3ccnc3)cc2)co1	63 to 64 °C
O=C(NCCc1ccc(Cl)cc1)C1=C(NCCc2ccc(Cl)cc2)CS(=O)(=O)N(Cc2ccc(Cl)c(Cl)c2)c2ccccc21	119 to 121 °C

Results, then the molecule that gave them:

melting point	SMILES
135 to 137 °C	Cc1noc2ccc(Oc3ncccc3C(=O)NCC3CCC(C(C)(C)O)CC3)cc12 (stereo not given)
140 to 141 °C	Cc1cc(C)c(Nc2nc(C)ccc2S(=O)(=O)c2ccc(-c3ccccc3)cc2)c(C)c1
> 280 °C	CSc1nn2c(N)ncnc2c1S(=O)(=O)c1ccccc1
208 to 209 °C	O=C(Nc1cccnc1)N1CCN(c2ccnc(-c3cccc(F)c3F)n2)CC1
174 to 175 °C	CC(C)c1cc(/C=C/C(=O)O)n(Cc2ccc(Cl)cc2Cl)n1
86 to 87 °C	CCOC(=O)Cc1c(C)nn(-c2ccccc2)c1C
132 to 133 °C	COc1cc(COc2nn(C)cc2CO)ccc1OCc1nc(-c2ccco2)oc1C
68 to 70 °C	FC(F)(F)c1cccc(Sc2cc(Br)nc(Br)c2)c1
191 to 192 °C	Cc1cc(O)c(C(C)(C)C)cc1N
214 to 215 °C	CC(C)n1nc(-c2c(Sc3ccccc3)nc(N)nc2-c2ccccc2)ccc1=O
65 to 66 °C	CCOc1ccc(CCCCCCC(=O)O)cc1
222 to 224 °C	COc1ccc(C(=O)c2sc(Nc3ccc(OCc4ccccc4)cc3)nc2N)cc1
169 to 172 °C	Cc1nnc2ccc(-c3cccc(N(C)C(=O)C4CC4)c3)nn12
201 to 209 °C	Cc1c[nH]c2c1C(=O)CC(c1ccccc1Cl)C2 (stereo not given)
190 °C	Cc1cccc(-c2n[nH]cc2-c2ccnc(-c3ccc(Cl)cc3)c2)n1
168 to 169 °C	OC(Cn1cncn1)(c1ccc(Cl)cc1)C(Cl)(Cl)C(Cl)Cl (stereo not given)
125 to 128 °C	CC(C)N=C(N=c1ccccn1CCc1ccccc1Br)NC(C)C
69 °C	COC(=O)CCCOc1ccc(C=O)cc1OC
149 to 150 °C	N=C(NC(=O)OCc1ccccc1)NC(=O)OCc1ccccc1
112 °C	CC(C)(C)OC(=O)NCC(=O)N1[C@@H](C(=O)OC(C)(C)C)CC[C@H]1c1ccccc1 (racemic)

melting point	SMILES
> 250 °C	C[C@@H](Nc1ncnc2[nH]c(-c3cccc([N+](=O)[O-])c3)cc12)c1ccccc1
225 to 226 °C	N#CC1CC2(c3ccccc3)SC13c1ccccc1CCN3C2=O (stereo not given)
97 to 101 °C	Cn1c(C(F)(F)F)cc(=O)n(-c2cc(OC(=O)C3CCCCC3)c(Cl)cc2F)c1=O
105 to 107 °C	CCOC(=O)c1ccc(OCC(=O)c2ccc3c(c2)C(C)(C)CCC3(C)C)cc1
124 °C	CCCOc1ccc2[nH]c(-c3cc(C)c(O)c(C)c3)c(C)c2c1
79 °C	COc1ccc(-n2nc(C(F)(F)F)cc2CO)cc1
98 to 100 °C	CCC1(C=O)CSc2ccccc2C(c2ccccc2)=N1 (racemic)
167 °C	CCCc1noc(-c2ccccc2)c1-c1ccc(S(N)(=O)=O)cc1
187 to 188 °C	Cc1cc(Br)cnc1CCCCNN1Cc2ccccc2S(=O)(=O)N1
261 to 263 °C	CNC(=O)c1ccc(C=CC(=O)NCC(=O)N(C)c2ccc(C)c(CO)c2C)cc1
128 to 132 °C	CNc1nc(SC)nc(N(C)C)c1[N+](=O)[O-]
95.7 to 96.7 °C	OCCC#Cc1cnc2ccccc2c1
161 to 163 °C	Cc1c(C)c2ccc(OCCCCN3CCN(c4cccc(Cl)c4Cl)CC3)nc2[nH]c1=O
134 to 136 °C	Cc1cc(C)c(C(=O)c2cccc(-n3ccnc3)c2)c(C)c1
204 to 206 °C	CC(C)(C)OC(=O)NCCc1c[nH]c2ccc(CCO)cc12
156 to 159 °C	Nc1nc(OCCc2ccc(Cl)cc2)nc2c1ncn2C1OC(CO)C(O)C1O (stereo not given)
229 to 230 °C	CCCc1c(OCc2ccc(/C=C3\SC(=S)NC3=O)cc2)ccc(C(=O)c2ccccc2)c1O
220 to 221 °C	CN1CCN(c2ccc(-c3ccc4c(c3)C=C(C(=O)Nc3ccc(CN(C)C5CCOCC5)cc3)CCO4)cc2)CC1
390 °C	O=C(O)c1ccc2ccc3ccc(C(=O)O)cc3c2c1
155 °C	COc1ccc(C(=CN2CCNC2=O)c2ccccc2)cc1OC

melting point	SMILES
128 to 129 °C	O=C(O)CCCN(C(=O)c1cccc(C(F)(F)F)c1)c1cccc2ccccc12
49 to 50 °C	Oc1ccccc1OCC(F)(F)F
200 to 201 °C	CN1CCN(c2cccc3c2C[C@H](NC(=O)c2ccc(Br)cc2)CC3)CC1
77 to 78 °C	CCOC(=O)c1cc(N)cc(N)c1
260 to 264 °C	Cc1cc2ccccn2c1C(=O)C1CCc2nc[nH]c2C1 (stereo not given)
328 to 332 °C	CCOc1ccccc1C=C1CCc2c1nc1ccc(C(=O)O)cn1c2=O
73 to 76 °C	Cc1cccc(-c2[nH]c(C(C)C)nc2-c2cccc(-c3cccs3)c2)n1
112 to 114 °C	CC(CCc1ccc2c(c1)OCO2)NCC(O)c1cc(C(N)=O)cs1 (stereo not given)
117 to 122 °C	c1ccc2c(c1)CNc1ccccc1C2
80 to 81 °C	CC(=O)c1c(C)sc(-c2ccncc2)c1C
46 to 48 °C	COc1ccc(Nc2ccc(F)cc2)cc1
233 to 239 °C	CCC(=O)N1CCC(NC(=O)Nc2ccc(Br)cc2)CC1
79 to 81 °C	Cn1c(=O)cc(CCN2CCC(c3c[nH]c4ccccc34)CC2)c2ccccc21
250 to 252 °C	Cc1n[nH]c2c1CCc1[nH]ncc1-2
112 to 114 °C	CC(C)C(Br)=C(c1ccccc1)c1ccccc1
129 to 131 °C	OCc1ccc(I)cc1O
224 to 226 °C	CCOc1ccc(Nc2ncc3c(n2)N(c2ccccc2)C(=O)N(c2c(Cl)cccc2Cl)C3)cc1
124 to 126 °C	Clc1cc(N2CCN(CCOc3ccc(Br)cc3)CC2)c(Cl)nn1
